# Source: patent US11229623B2 (GlaxoSmithKline Intellectual Property (No.2) Limited, priority 2016, dated 2022)
# pIC50: −log10 of the molar value. Where a name gives a salt, the structure may show the parent alone.
# Target: T1, human TRPV4 (Homo sapiens, UniProt Q9HBA0)
# T1 construct: expressed in transfected cells; host or cells: BHK/AC9 cells transduced with BacMam virus
# Experiment: FLIPR assay for hTRPV4 expressed in BHK cells: inhibition of Agonist Compound-induced calcium signal
# Assay type: cell-based
# Conditions: hTRPV4 FLIPR assay; average in at least one set of experimental runs; read-out: average IC50
# How it was run: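 BHK/AC9 cells transduced with BacMam human TRPV4 (MOI 78), plated 15,000 per well and cultured 24 h at 37° C. Loaded with 2 μM Fluo-4 AM plus 500 μM Brilliant Black in HBSS for 1-1.5 h at room temperature in the dark; intracellular calcium signal read by FLIPR fluorescence.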
# T1 sequence (Q9HBA0 whole entry): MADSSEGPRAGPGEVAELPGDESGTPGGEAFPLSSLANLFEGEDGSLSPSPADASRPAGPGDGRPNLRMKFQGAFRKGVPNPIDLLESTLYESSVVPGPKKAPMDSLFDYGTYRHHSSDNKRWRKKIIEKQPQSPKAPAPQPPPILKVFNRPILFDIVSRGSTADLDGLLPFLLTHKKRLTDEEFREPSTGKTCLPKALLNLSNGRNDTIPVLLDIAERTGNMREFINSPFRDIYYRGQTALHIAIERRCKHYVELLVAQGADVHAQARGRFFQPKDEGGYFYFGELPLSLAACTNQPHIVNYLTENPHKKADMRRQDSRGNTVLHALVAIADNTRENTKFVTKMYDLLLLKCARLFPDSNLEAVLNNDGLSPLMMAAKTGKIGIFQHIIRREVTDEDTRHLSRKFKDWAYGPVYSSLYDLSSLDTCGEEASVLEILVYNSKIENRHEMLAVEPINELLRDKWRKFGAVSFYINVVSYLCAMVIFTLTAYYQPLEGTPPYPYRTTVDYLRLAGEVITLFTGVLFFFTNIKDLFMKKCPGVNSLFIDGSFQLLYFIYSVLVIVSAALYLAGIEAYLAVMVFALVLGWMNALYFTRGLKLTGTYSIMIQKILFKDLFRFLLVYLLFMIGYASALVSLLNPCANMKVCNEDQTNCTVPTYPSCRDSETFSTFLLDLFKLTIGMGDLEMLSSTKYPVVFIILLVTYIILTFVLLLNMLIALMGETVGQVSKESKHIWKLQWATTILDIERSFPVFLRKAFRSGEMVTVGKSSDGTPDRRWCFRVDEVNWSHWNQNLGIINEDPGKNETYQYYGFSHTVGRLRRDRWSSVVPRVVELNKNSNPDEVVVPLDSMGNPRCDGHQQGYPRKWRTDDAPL
row,pIC50,Compound
1,8.52,"N#Cc1cc(C(F)(F)F)ccc1S(=O)(=O)N1C[C@H](Oc2ccc(Cl)cc2)[C@](O)(CO)C1 [Example 6, 2-(((3R,4S)-4-(4-chlorophenoxy)-3-hydroxy-3-(hydromethyl)pyrrolidin-1-yl)sulfonyl)-5-(trifluoromethyl)benzonitrile]"

# Same assay, conditions: hTRPV4 in BHK/AC9 cells, FLIPR calcium signal, agonist at EC80; reported as range class; read-out: IC50
row,pIC50,Compound
1,7.00 to 8.00,"N#Cc1ccc(S(=O)(=O)N2C[C@H](Oc3ccc(C(F)(F)F)cc3)[C@](O)(CO)C2)c(Cl)c1 [Example 150, 3-chloro-4-(((3R,4S)-3-hydroxy-3-(hydroxymethyl)-4-(4-(trifluoromethyl)phenoxy)pyrrolidin-1-yl)sulfonyl)benzonitrile]"
2,8.00 to 10.00,"N#Cc1cc(C(F)(F)F)ccc1S(=O)(=O)N1C[C@H](Oc2ccc(Cl)cc2)[C@](O)(CO)C1 [Example 6, 2-(((3R,4S)-4-(4-chlorophenoxy)-3-hydroxy-3-(hydromethyl)pyrrolidin-1-yl)sulfonyl)-5-(trifluoromethyl)benzonitrile]"
3,7.00 to 8.00,"N#Cc1cc(C(F)(F)F)ccc1S(=O)(=O)N1C[C@H](Oc2ccc(C(F)(F)F)cc2)[C@@](O)(CO)C1 [Example 148, 2-(((3S,4S)-3-hydroxy-3-(hydroxymethyl)-4-(4-(trifluoromethyl)phenoxy)pyrrolidin-1-yl)sulfonyl)-5-(trifluoromethyl)benzonitrile]"
4,7.00 to 8.00,"Cn1ncc(Br)c1S(=O)(=O)N1C[C@H](Oc2ccc(C#N)c(F)c2)[C@](O)(CO)C1 [Example 123, 4-(((3S,4R)-1-((4-bromo-1-methyl-1H-pyrazol-5-yl)sulfonyl)-4-hydroxy-4-(hydroxymethyl)pyrrolidin-3-yl)oxy)-2-fluorobenzonitrile]"
5,8.00 to 10.00,"N#Cc1ccc(O[C@H]2CN(S(=O)(=O)c3ccc(I)cn3)C[C@@]2(O)CN)cc1F [Example 250, 4-(((3S,4S)-4-(aminomethyl)-4-hydroxy-1-((5-iodopyridin-2-yl)sulfonyl)pyrrolidin-3-yl)oxy)-2-fluorobenzonitrile, 2,2,2-trifluoroacetate]"
6,7.00 to 8.00,"N#Cc1ccc(O[C@H]2CN(S(=O)(=O)c3ccc(Br)cc3)C[C@@]2(O)CO)cc1F [Example 102, 4-(((3S,4R)-1-((4-bromophenyl)sulfonyl)-4-hydroxy-4-(hydroxymethyl)pyrrolidin-3-yl)oxy)-2-fluorobenzonitrile]"
7,7.00 to 8.00,"N#Cc1ccc(O[C@H]2CN(S(=O)(=O)c3ccc(Cl)cc3Cl)C[C@]2(O)CO)cc1F [Example 142, 4-(((3S,4S)-1-((2,4-dichlorophenyl)sulfonyl)-4-hydroxy-4-(hydroxymethyl)pyrrolidin-3-yl)oxy)-2-fluorobenzonitrile]"
8,7.00 to 8.00,"C[C@H](O)[C@]1(O)CN(S(=O)(=O)c2cccnc2C#N)C[C@@H]1Oc1ccc(C#N)c(F)c1 [Example 203, 3-(((3R,4S)-4-(4-cyano-3-fluorophenoxy)-3-hydroxy-3-((S)-1-hydroxyethyl)pyrrolidin-1-yl)sulfonyl) picolinonitrile]"
9,7.00 to 8.00,"N#Cc1ccc(O[C@H]2CN(S(=O)(=O)c3ccc(Cl)cn3)C[C@]2(O)CN)cc1F [Example 234, 4-(((3S,4R)-4-(aminomethyl)-1-((5-chloropyridin-2-yl)sulfonyl)-4-hydroxypyrrolidin-3-yl)oxy)-2-fluorobenzonitrile, Hydrochloride]"
10,8.00 to 10.00,"Cc1ccc(S(=O)(=O)N2C[C@H](Oc3ccc(C#N)c(F)c3)[C@](O)(CO)C2)c(C#N)c1 [Example 216, 4-(((3S,4R)-1-((2-cyano-4-methylphenyl)sulfonyl)-4-hydroxy-4-(hydroxymethyl)pyrrolidin-3-yl)oxy)-2-fluorobenzonitrile]"
11,8.00 to 10.00,"CC#Cc1ccc(S(=O)(=O)N2C[C@H](Oc3ccc(C#N)c(F)c3)[C@](O)(CO)C2)c(C#N)c1 [Example 219, 4-(((3S,4R)-1-((2-cyano-4-(prop-1-yn-1-yl)phenyl)sulfonyl)-4-hydroxy-4-(hydroxymethyl)pyrrolidin-3-yl)oxy)-2-fluorobenzonitrile]"
12,7.00 to 8.00,"CC(C)(C)C#Cc1ccc(S(=O)(=O)N2C[C@H](Oc3ccc(C#N)c(F)c3)[C@](O)(CO)C2)nc1 [Example 229, 4-(((3S,4R)-1-((5-(3,3-dimethylbut-1-yn-1-yl)pyridin-2-yl)sulfonyl)-4-hydroxy-4-(hydroxymethyl)pyrrolidin-3-yl)oxy)-2-fluorobenzonitrile]"
13,8.00 to 10.00,"Cc1cc(C#N)ccc1O[C@H]1CN(S(=O)(=O)c2ccc(C(F)(F)F)cc2C#N)C[C@@]1(O)CO [Example 16, 2-(((3R,4S)-4-(4-cyano-2-methylphenoxy)-3-hydroxy-3-(hydroxymethyl)pyrrolidin-1-yl)sulfonyl)-5-(trifluoromethyl)benzonitrile]"
14,8.00 to 10.00,"CC(C)Oc1cc(C#N)c(F)cc1O[C@H]1CN(S(=O)(=O)c2ccc(C(F)(F)F)cc2C#N)C[C@@]1(O)CO [Example 161, 4-(((3S,4R)-1-((2-cyano-4-(trifluoromethyl)phenyl)sulfonyl)-4-hydroxy-4-(hydroxymethyl)pyrrolidin-3-yl)oxy)-2-fluoro-5-isopropoxybenzonitrile]"
15,8.00 to 10.00,"N#Cc1ccc(O[C@H]2CN(S(=O)(=O)c3cccnc3OC(F)F)C[C@@]2(O)CO)cc1F [Example 122, 4-(((3S,4R)-1-((2-(difluoromethoxy)pyridin-3-yl)sulfonyl)-4-hydroxy-4-(hydroxymethyl)pyrrolidin-3-yl)oxy)-2-fluorobenzonitrile]"
16,7.00 to 8.00,"N#Cc1ccc(O[C@H]2CN(S(=O)(=O)c3ccc(Br)nc3)C[C@@]2(O)CO)cc1F [Example 99, 4-(((3S,4R)-1-((6-bromopyridin-3-yl)sulfonyl)-4-hydroxy-4-(hydroxymethyl)pyrrolidin-3-yl)oxy)-2-fluorobenzonitrile]"
17,8.00 to 10.00,"N#Cc1ccc(S(=O)(=O)N2C[C@H](Oc3cc(F)c(C#N)cc3OCC(F)(F)F)[C@](O)(CO)C2)cn1 [Example 174, 5-(((3R,4S)-4-(4-cyano-5-fluoro-2-(2,2,2-trifluoroethoxy)phenoxy)-3-hydroxy-3-(hydroxymethyl)pyrrolidin-1-yl)sulfonyl) picolinonitrile]"
18,7.00 to 8.00,"N#Cc1ccc(O[C@H]2CN(S(=O)(=O)c3cccnc3C#N)C[C@]2(O)CO)cc1F [Example 140, 3-(((3S,4S)-4-(4-cyano-3-fluorophenoxy)-3-hydroxy-3-(hydroxymethyl)pyrrolidin-1-yl)sulfonyl)picolinonitrile]"
19,8.00 to 10.00,"C[C@@H](O)[C@]1(O)CN(S(=O)(=O)c2ccc(C(F)(F)F)cc2C#N)C[C@@H]1Oc1ccc(C#N)c(F)c1 [Example 193, 4-(((3S,4R)-1-((2-cyano-4-(trifluoromethyl)phenyl)sulfonyl)-4-hydroxy-4-((R)-1-hydroxyethyl)pyrrolidin-3-yl)oxy)-2-fluorobenzonitrile]"
20,8.00 to 10.00,"C[C@H](O)[C@]1(O)CN(S(=O)(=O)c2ccc(Cl)cc2Cl)C[C@@H]1Oc1ccc(C#N)c(F)c1 [Example 204, 4-(((3S,4R)-1-((2,4-dichlorophenyl)sulfonyl)-4-hydroxy-4-((S)-1-hydroxyethyl)pyrrolidin-3-yl)oxy)-2-fluorobenzonitrile]"
21,8.00 to 10.00,"N#Cc1ccc(O[C@H]2CN(S(=O)(=O)c3ccc(C(F)(F)F)cc3C#N)C[C@@]2(O)CO)c(OCC(F)(F)F)c1 [Example 167, 2-(((3R,4S)-4-(4-cyano-2-(2,2,2-trifluoroethoxy)phenoxy)-3-hydroxy-3-(hydroxymethyl)pyrrolidin-1-yl)sulfonyl)-5-(trifluoromethyl)benzonitrile]"
22,7.00 to 8.00,"N#CCc1ccc(O[C@H]2CN(S(=O)(=O)c3ccc(C(F)(F)F)cc3C#N)C[C@@]2(O)CO)cc1 [Example 32, 2-(((3R,4S)-4-(4-(cyanomethyl)phenoxy)-3-hydroxy-3-(hydroxymethyl)pyrrolidin-1-yl)sulfonyl)-5-(trifluoromethyl)benzonitrile]"
23,7.00 to 8.00,"COc1ccc(S(=O)(=O)N2C[C@H](Oc3ccc(C#N)c(F)c3)[C@](O)([C@H](C)O)C2)c(C#N)c1 [Example 199, 4-(((3S,4R)-1-((2-cyano-4-methoxyphenyl)sulfonyl)-4-hydroxy-4-((S)-1-hydroxyethyl)pyrrolidin-3-yl)oxy)-2-fluorobenzonitrile]"
24,8.00 to 10.00,"N#Cc1ccc(O[C@H]2CN(S(=O)(=O)c3ccc(C(F)(F)F)cc3C#N)C[C@@]2(O)CO)c(C(F)(F)F)c1 [Example 17, 2-(((3R,4S)-4-(4-cyano-2-(trifluoromethyl)phenoxy)-3-hydroxy-3-(hydroxymethyl)pyrrolidin-1-yl)sulfonyl)-5-(trifluoromethyl)benzonitrile]"
25,7.00 to 8.00,"N#Cc1cc(C(F)(F)F)ccc1S(=O)(=O)N1C[C@H](Oc2ccc(F)c(F)c2F)[C@](O)(CO)C1 [Example 28, 2-(((3R,4S)-3-hydroxy-3-(hydroxymethyl)-4-(2,3,4-trifluorophenoxy)pyrrolidin-1-yl)sulfonyl)-5-(trifluoromethyl)benzonitrile]"
26,8.00 to 10.00,"N#Cc1ccc(O[C@H]2CN(S(=O)(=O)c3ccc(Cl)cc3C#N)C[C@@]2(O)CN)cc1F [Example 240, 4-(((3S,4S)-4-(aminomethyl)-1-((4-chloro-2-cyanophenyl)sulfonyl)-4-hydroxypyrrolidin-3-yl)oxy)-2-fluorobenzonitrile]"

row,Compound,pIC50
1,"CC(C)COc1cc(C#N)c(F)cc1O[C@H]1CN(S(=O)(=O)c2ccc(C#N)nc2)C[C@@]1(O)CO [Example 181, 5-(((3R,4S)-4-(4-cyano-5-fluoro-2-isobutoxyphenoxy)-3-hydroxy-3-(hydroxymethyl)pyrrolidin-1-yl)sulfonyl) picolinonitrile]",8.00 to 10.00
2,"CCCCOc1cc(C#N)c(F)cc1O[C@H]1CN(S(=O)(=O)c2ccc(C(F)(F)F)cc2C#N)C[C@@]1(O)CO [Example 164, 5-butoxy-4-(((3S,4R)-1-((2-cyano-4-(trifluoromethyl)phenyl)sulfonyl)-4-hydroxy-4-(hydroxymethyl)pyrrolidin-3-yl)oxy)-2-fluorobenzonitrile]",8.00 to 10.00
3,"CC(C)COc1cc(C#N)ccc1O[C@H]1CN(S(=O)(=O)c2ccc(C(F)(F)F)cc2C#N)C[C@@]1(O)CO [Example 170, 2-(((3R,4S)-4-(4-cyano-2-isobutoxyphenoxy)-3-hydroxy-3-(hydroxymethyl)pyrrolidin-1-yl)sulfonyl)-5-(trifluoromethyl)benzonitrile]",8.00 to 10.00
